{
  "source": "paper PMC11187126",
  "about": "“Structure and dynamics of the pyroglutamylated RF-amide peptide QRFP receptor GPR103” (Nature Communications, 2024)",
  "biological_target": "T1, GPR103 Q125^3.32A (Homo sapiens, UniProt Q96P65, Q125A)",
  "T1 construct": "we used human full-length QRFPR-encoding plasmids; expressed in transfected cells; host or cells: HEK293 cells, pCAGGS vector",
  "T1 sequence (Q96P65 1-431 Q125A)": "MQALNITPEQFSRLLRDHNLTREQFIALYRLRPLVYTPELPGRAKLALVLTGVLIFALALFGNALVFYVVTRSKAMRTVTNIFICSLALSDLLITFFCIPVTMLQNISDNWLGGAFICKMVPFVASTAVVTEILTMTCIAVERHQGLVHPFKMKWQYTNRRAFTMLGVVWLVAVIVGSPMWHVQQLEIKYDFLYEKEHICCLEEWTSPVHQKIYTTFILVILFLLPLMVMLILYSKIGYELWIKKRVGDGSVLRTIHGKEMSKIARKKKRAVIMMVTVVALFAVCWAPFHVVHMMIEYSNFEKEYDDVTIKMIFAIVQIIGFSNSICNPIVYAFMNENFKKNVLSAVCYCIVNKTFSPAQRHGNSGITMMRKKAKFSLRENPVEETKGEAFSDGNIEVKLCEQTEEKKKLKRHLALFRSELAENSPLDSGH",
  "test": "TGFα shedding assay; Exp. level WT (1:50)",
  "assay_type": "cell-based",
  "note": "Like-named read-outs stand apart in the source and are kept apart here. No end group written: not given here.",
  "data": [
    {"substance": "TSGPLGNLAEELNGYSRKKGGFSFRF-NH2 [QRFP26]", "values": [
      {"measurement": "Emax", "setting": "Exp. #1", "value": 46.53, "unit": "% WT"},
      {"measurement": "Emax", "setting": "Exp. #2", "value": 25.38, "unit": "% WT"},
      {"measurement": "Emax", "setting": "Exp. #3", "value": 32.41, "unit": "% WT"},
      {"measurement": "Emax", "setting": "mean, read-out: Emax", "value": 34.8, "unit": "%"},
      {"measurement": "EC50", "setting": "n = 3", "value": 282, "unit": "nM"},
      {"measurement": "Emax", "setting": "n = 3, read-out: Emax", "value": "35.7 ± 5.1", "unit": "%"}
    ]}
  ]
}
